Measurements from PubChem BioAssay (NCI).
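GI50 = concentration required for 50% inhibition of growth. TGI denotes the concentration required for complete inhibition of growth.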

Columns and labels:
Assay in all cases: NCI tumour cell line growth inhibition, 384-well format
A498 renal = system: A498 renal
A549 NSCLC = system: A549 NSCLC
BT-549 breast = system: BT-549 breast
CAKI-1 renal = system: CAKI-1 renal
COLO 205 colon = system: COLO 205 colon
DU-145 prostate = system: DU-145 prostate
EKVX NSCLC = system: EKVX NSCLC
HCC-2998 colon = system: HCC-2998 colon
HCT-116 colon = system: HCT-116 colon
HCT-15 colon = system: HCT-15 colon
HL-60(TB) leukemia = system: HL-60(TB) leukemia
HOP-92 NSCLC = system: HOP-92 NSCLC
HS 578T breast = system: HS 578T breast
HT29 colon = system: HT29 colon
IGROV1 ovarian = system: IGROV1 ovarian
KM12 colon = system: KM12 colon
LOX IMVI melanoma = system: LOX IMVI melanoma
MCF7 breast = system: MCF7 breast
MDA-MB-231 breast = system: MDA-MB-231 breast
MDA-MB-468 breast = system: MDA-MB-468 breast
MOLT-4 leukemia = system: MOLT-4 leukemia
NCI-H226 lung = system: NCI-H226 lung
NCI-H23 lung = system: NCI-H23 lung
NCI-H322M lung = system: NCI-H322M lung
NCI-H460 NSCLC = system: NCI-H460 NSCLC
NCI-H522 lung = system: NCI-H522 lung
NCI/ADR-RES ovarian = system: NCI/ADR-RES ovarian
OVCAR-3 ovarian = system: OVCAR-3 ovarian
OVCAR-4 ovarian = system: OVCAR-4 ovarian
OVCAR-5 ovarian = system: OVCAR-5 ovarian
OVCAR-8 ovarian = system: OVCAR-8 ovarian
PC-3 prostate = system: PC-3 prostate
RPMI-8226 leukemia = system: RPMI-8226 leukemia
RXF 393 renal = system: RXF 393 renal
SF-268 CNS = system: SF-268 CNS
SK-MEL-28 melanoma = system: SK-MEL-28 melanoma
SK-MEL-5 melanoma = system: SK-MEL-5 melanoma
SK-OV-3 ovarian = system: SK-OV-3 ovarian
SN12C renal = system: SN12C renal
SNB-19 CNS = system: SNB-19 CNS
SNB-75 CNS = system: SNB-75 CNS
SR leukemia = system: SR leukemia
T-47D breast = system: T-47D breast
U251 glioblastoma = system: U251 glioblastoma
UACC-257 melanoma = system: UACC-257 melanoma
UACC-62 melanoma = system: UACC-62 melanoma

Cn1cc(-c2cnn3c(N)c(Br)c(C4CCCNC4)nc23)cn1 (stereo unspecified)
GI50 (A498 renal): < 0.01 µM | TGI (A498 renal): 0.0226 µM | GI50 (A549 NSCLC): 7.68 µM | TGI (A549 NSCLC): 28.6 µM | GI50 (BT-549 breast): 0.033 µM | TGI (BT-549 breast): 5.25 µM | GI50 (CAKI-1 renal): 1.46 µM | TGI (CAKI-1 renal): 15.2 µM | GI50 (COLO 205 colon): 0.922 µM | TGI (COLO 205 colon): 5.81 µM | GI50 (DU-145 prostate): 0.227 µM | TGI (DU-145 prostate): 15.6 µM | GI50 (EKVX NSCLC): 3.54 µM | TGI (EKVX NSCLC): 23.8 µM | GI50 (HCC-2998 colon): < 0.01 µM | TGI (HCC-2998 colon): 0.0624 µM | GI50 (HCT-116 colon): 2.01 µM | TGI (HCT-116 colon): 15.6 µM | GI50 (HCT-15 colon): 2.08 µM | TGI (HCT-15 colon): 19.4 µM | GI50 (HL-60(TB) leukemia): 0.032 µM | TGI (HL-60(TB) leukemia): 0.129 µM | GI50 (HOP-92 NSCLC): 0.0263 µM | TGI (HOP-92 NSCLC): 33.3 µM | GI50 (HS 578T breast): 0.0302 µM | TGI (HS 578T breast): 18.9 µM | GI50 (HT29 colon): 0.989 µM | TGI (HT29 colon): 12.9 µM | GI50 (IGROV1 ovarian): 0.0563 µM | TGI (IGROV1 ovarian): 13.2 µM | GI50 (KM12 colon): 0.117 µM | TGI (KM12 colon): 15.8 µM | GI50 (LOX IMVI melanoma): 1.33 µM | TGI (LOX IMVI melanoma): 4.22 µM | GI50 (MCF7 breast): 1.36 µM | TGI (MCF7 breast): 17.9 µM | GI50 (MDA-MB-231 breast): 2.9 µM | TGI (MDA-MB-231 breast): 42.2 µM | GI50 (MDA-MB-468 breast): 3.75 µM | TGI (MDA-MB-468 breast): 24.4 µM | GI50 (MOLT-4 leukemia): 0.0234 µM | TGI (MOLT-4 leukemia): 0.053 µM | GI50 (NCI-H226 lung): 3.29 µM | TGI (NCI-H226 lung): 18.6 µM | GI50 (NCI-H23 lung): 0.027 µM | TGI (NCI-H23 lung): 21.2 µM | GI50 (NCI-H322M lung): 0.293 µM | TGI (NCI-H322M lung): 22.1 µM | GI50 (NCI-H460 NSCLC): 0.93 µM | TGI (NCI-H460 NSCLC): 10.9 µM | GI50 (NCI-H522 lung): 2.56 µM | TGI (NCI-H522 lung): 11.4 µM | GI50 (NCI/ADR-RES ovarian): 2.04 µM | TGI (NCI/ADR-RES ovarian): > 100 µM | GI50 (OVCAR-3 ovarian): 0.188 µM | TGI (OVCAR-3 ovarian): 20.3 µM | GI50 (OVCAR-4 ovarian): < 0.01 µM | TGI (OVCAR-4 ovarian): 26.6 µM | GI50 (OVCAR-5 ovarian): 0.0964 µM | TGI (OVCAR-5 ovarian): 16.5 µM | GI50 (OVCAR-8 ovarian): 0.0382 µM | TGI (OVCAR-8 ovarian): 21.2 µM | GI50 (PC-3 prostate): 1.8 µM | TGI (PC-3 prostate): 14.6 µM | GI50 (RPMI-8226 leukemia): 0.0358 µM | TGI (RPMI-8226 leukemia): 0.643 µM | GI50 (RXF 393 renal): 0.0332 µM | TGI (RXF 393 renal): 25 µM | GI50 (SF-268 CNS): 5.36 µM | TGI (SF-268 CNS): 27.2 µM | GI50 (SK-MEL-28 melanoma): 11.1 µM | TGI (SK-MEL-28 melanoma): 26.5 µM | GI50 (SK-MEL-5 melanoma): 0.0346 µM | TGI (SK-MEL-5 melanoma): 1.2 µM | GI50 (SK-OV-3 ovarian): 0.0621 µM | TGI (SK-OV-3 ovarian): 23.2 µM | GI50 (SN12C renal): 0.0371 µM | TGI (SN12C renal): 3.72 µM | GI50 (SNB-19 CNS): 0.983 µM | TGI (SNB-19 CNS): 37.1 µM | GI50 (SNB-75 CNS): 4.99 µM | TGI (SNB-75 CNS): 25.3 µM | GI50 (SR leukemia): < 0.01 µM | GI50 (T-47D breast): 14.6 µM | TGI (T-47D breast): 37.1 µM | GI50 (U251 glioblastoma): 5.36 µM | TGI (U251 glioblastoma): 20.3 µM | GI50 (UACC-257 melanoma): 2.29 µM | TGI (UACC-257 melanoma): 19.5 µM | GI50 (UACC-62 melanoma): 0.88 µM | TGI (UACC-62 melanoma): 15.3 µM
